Reference: paper PMC7278776, “Multidrug Resistance Modulation Activity of Silybin Derivatives and Their Anti-Inflammatory Potential” (Antioxidants, 2020)

What was measured:
ABCA3 = ABCA3 mRNA expression (real-time PCR); format: cell-based, human; conditions: A2780/DOX
Procedure: (§1) The A2780/DOX cell line was seeded into 5 cm Petri dishes with DMEM medium at 1 × 10^5 cell/mL. After 24 h, the dishes were washed with PBS and new DMEM medium supplemented with doxorubicin (at concentration equal to IC25) and samples (10 µM) were added. After 48 h of treatment, the cells were washed with PBS and harvested using the standard trypsin-EDTA procedure. The harvested cells were centrifuged (3200× g; 10 min, 4 °C). The supernatant was discarded, and the pellets were washed with 1.5 mL of cooled PBS (5400× g; 10 min, 4 °C). The washing step was repeated with 1 mL of PBS and the cells were centrifuged again (10,000× g; 3 min, 4 °C). Afterwards, the pellets were resuspended in 1 mL of Trizol (Invitrogen, Carlsbad, CA, USA) and transferred into pre-cooled RNase-free microfuge tubes. The samples were stored at −80 °C.
(§2) A Quant-iT RiboGreen RNA Assay Kit (Invitrogen) was used to determine the RNA concentration using the Infinite M200 plate reader (Tecan, Männedor, Switzerland). The cDNA was prepared from 0.5 µg of total RNA using a RevertAid First Strand Synthesis cDNA Kit (MBI Fermentas, Vilnius, Lithuania). The amplification of the ubiquitin C gene fragment was used to determine the quality of cDNA.
(§3) The experiment was performed using the ViiA7 Real-Time polymerase chain reaction (PCR) System (Life Technologies, Camarillo, CA, USA) with a 384-well block. Before quantitative real-time PCR, the master mix was prepared by mixing 2 µL of 8 × diluted cDNA, 1.75 µL of RNase free water, 1 µL of 5 × HotFIREPol Probe quantitative PCR Mix Plus (Solis Biodyne, Tartu, Estonia) and 0.25 µL of specific 20 × TaqMan Gene Expression Assay (Life Technologies), giving 5 µL of final reaction volume. Cycling parameters were: initial hold at 50 °C for 2 min and denaturation at 95 °C for 10 min, followed by 45 cycles consisting of denaturation at 95 °C for 15 s and annealing/extension at 60 °C for 1 min. After each extension phase, the fluorescence values were acquired. Duplicate samples were used for measurement and samples with a standard deviation of duplicates > 1.0 cycle threshold (Ct) were re-analyzed. The real time PCR procedure was maintained according to MIQE (Minimum information for publication of quantitative real-time PCR experiments) guidelines. The software REST 2009 (Qiagen, Hilden, Germany) served to compare relative transcript levels of genes in the cell line.

ABCB6 = ABCB6 mRNA expression (real-time PCR); format: cell-based, human; conditions: A2780/DOX
Procedure: as §1, with “After 24 h, the dishes were washed with PBS and new DMEM medium supplemented with doxorubicin (at concentration equal to IC25) and samples (10 µM) were added.” left out
as §2, §3

ABCF2 [1] = test: ABCF2 mRNA expression (real-time PCR); format: cell-based, human; conditions: A2780/DOX, 10 µM combined with doxorubicin at IC25, 48 h
Procedure: as §1, §2, §3

ABCG1 = ABCG1 mRNA expression (real-time PCR); format: cell-based, human; conditions: A2780/DOX
Procedure: as §1, §2, §3

[2] = Viability of A2780/DOX cells (resazurin); conditions: human
Procedure: To determine the NO production, the medium was mixed with Griess reagent (0.04 g/mL, prepared in deionized water) in a 1:1 ratio. After 15 min, absorbance was recorded at 540 nm. To determine cell viability, the resazurin solution (0.03 mg/mL in PBS) was added to the cells. After 2 h of incubation, fluorescence was recorded (560/590 nm, ex./em.).
A multidrug resistant ovarian sub-line resistant to doxorubicin (A2780/DOX, Sigma-Aldrich) was cultivated in DMEM medium with 10% FBS and 1 × antibiotic antimycotic solution. Every other passage, doxorubicin at the final concentration of 0.1 µM was added to the culture medium to maintain the resistance of the cell line. To perform experiments, the cells were seeded at 1 × 10^5 cell/mL into the wells of a 96-well plate and incubated for 24 h. Afterwards, the cells were washed with PBS and fresh DMEM medium with tested compounds at 10, 20 and 30 µM were added to each well, except for the control wells. Subsequently, the cells were exposed to increasing concentrations of doxorubicin (0.6–20 µM) for 72 h. After incubation, the resazurin assay was performed as described above. The IC50 of doxorubicin was calculated for both the control and the samples and the fold change was counted up. […] The fold change lower than 1 means an antagonistic effect. (1) FOLD CHANGE=IC50 value of DOX cells treated with chemotherapeutic /IC50 value of DOX cells treated with chemotherapeutic and compound

ABCB2 = ABCB2 mRNA expression (real-time PCR); format: cell-based, human; conditions: A2780/DOX, 10 µM, 48 h, without doxorubicin
ABCF3 = ABCF3 mRNA expression (real-time PCR); format: cell-based, human; conditions: A2780/DOX
Procedure: as §1, with “After 24 h, the dishes were washed with PBS and new DMEM medium supplemented with doxorubicin (at concentration equal to IC25) and samples (10 µM) were added.” left out
as §2, §3

ABCB9 = ABCB9 mRNA expression (real-time PCR); format: cell-based, human; conditions: A2780/DOX, 10 µM, 48 h, without doxorubicin
ABCF1 = ABCF1 mRNA expression (real-time PCR); format: cell-based, human; conditions: A2780/DOX
Procedure: as §1, §2, §3

ABCF2 [3] = test: ABCF2 mRNA expression (real-time PCR); format: cell-based, human; conditions: A2780/DOX, 10 µM, 48 h, without doxorubicin
ABCA2 = ABCA2 mRNA expression (real-time PCR); format: cell-based, human; conditions: 10 µM, 48 h, without doxorubicin; for ABCA2 Expression Difference / ABCA2 Treated vs. Untreated: A2780/DOX
ABCB7 = ABCB7 mRNA expression (real-time PCR); format: cell-based, human; conditions: A2780/DOX, 10 µM, 48 h, without doxorubicin
Procedure: as §1, with “After 24 h, the dishes were washed with PBS and new DMEM medium supplemented with doxorubicin (at concentration equal to IC25) and samples (10 µM) were added.” left out
(§4) A Quant-iT RiboGreen RNA Assay Kit (Invitrogen) was used to determine the RNA concentration using the Infinite M200 plate reader (Tecan, Männedor, Switzerland). […]
(§5) The experiment was performed using the ViiA7 Real-Time polymerase chain reaction (PCR) System (Life Technologies, Camarillo, CA, USA) with a 384-well block. Before quantitative real-time PCR, the master mix was prepared by mixing 2 µL of 8 × diluted cDNA, 1.75 µL of RNase free water, 1 µL of 5 × HotFIREPol Probe quantitative PCR Mix Plus (Solis Biodyne, Tartu, Estonia) and 0.25 µL of specific 20 × TaqMan Gene Expression Assay (Life Technologies), giving 5 µL of final reaction volume. […] After each extension phase, the fluorescence values were acquired. […]

ABCC5 = ABCC5 mRNA expression (real-time PCR); format: cell-based, human; conditions: A2780/DOX, 10 µM, 48 h, without doxorubicin
[4] = set-up: method as in PMID 15465345, PMID 19138735; conditions: cited from earlier work
ABCE1 = ABCE1 mRNA expression (real-time PCR); format: cell-based, human; conditions: A2780/DOX, 10 µM, 48 h, without doxorubicin
Procedure: as §1, §2, §3

ABCB8 = ABCB8 mRNA expression (real-time PCR); format: cell-based, human; conditions: A2780/DOX, 10 µM, 48 h, without doxorubicin
Procedure: as §1, with “After 24 h, the dishes were washed with PBS and new DMEM medium supplemented with doxorubicin (at concentration equal to IC25) and samples (10 µM) were added.” left out
as §2
as §5, with “acquired. Duplicate samples were used for measurement and samples with a standard deviation of duplicates > 1.0 cycle threshold (Ct) were re-analyzed. The real time PCR procedure was maintained according to MIQE (Minimum information for publication of quantitative real-time PCR experiments) guidelines.” for “acquired.”

ABCD4 = ABCD4 mRNA expression (real-time PCR); format: cell-based, human; conditions: A2780/DOX, 10 µM, 48 h, without doxorubicin
Procedure: as §1, §2
as §5, with “acquired. Duplicate samples were used for measurement and samples with a standard deviation of duplicates > 1.0 cycle threshold (Ct) were re-analyzed. The real time PCR procedure was maintained according to MIQE (Minimum information for publication of quantitative real-time PCR experiments) guidelines.” for “acquired.”

ABC superfamily genes = test: Expression profile of ABC superfamily genes (real-time PCR); format: cell-based, human; conditions: 10 µM, 48 h, without doxorubicin
Procedure: as §1, with “After 24 h, the dishes were washed with PBS and new DMEM medium supplemented with doxorubicin (at concentration equal to IC25) and samples (10 µM) were added.” left out
as §4, §5

[5] = 10 µM combined with doxorubicin at IC25, 48 h
[6] = 10 µM, 48 h, without doxorubicin

SMILES	ABCA3 Expression Difference (ABCA3; [5])	ABCB6 Expression Difference (ABCB6; [5])	ABCF2 Expression Difference (ABCF2 [1])	ABCG1 Expression Difference (ABCG1; [5])	ABCB2 Expression Difference (ABCB2)	ABCF3 Expression Difference (ABCF3; [5])	ABCF3 Expression Difference (ABCF3; [6])	ABCB9 Expression Difference (ABCB9)	ABCF1 Expression Difference (ABCF1; [5])	ABCF2 Expression Difference (ABCF2 [3])	downregulation of ABCA2 expression (ABCA2)	ABCA2 Expression Difference (ABCA2)	ABCA2 Treated vs. Untreated (ABCA2)	ABCB7 Expression Difference (ABCB7)	ABCC5 Expression Difference (ABCC5)	ABCE1 Expression Difference (ABCE1)	viability at 20 µM [2]	ABCF1 Expression Difference (ABCF1; [6])	ABCF1 Treated vs. Untreated (ABCF1; [6])	ABCB6 Expression Difference (ABCB6; [6])	other results
COc1cc([C@H]2Oc3cc(-c4oc5cc(O)cc(O)c5c(=O)c4O)ccc3O[C@@H]2CO)ccc1O [Dehydrosilybin A, 2,3-dehydrosilybin A]	1.042	1.149	1.044	2.714	1.905	1.096	1.602	1.317	0.920	1.198	22%	0.778	DOWN	–	–	–	–	–	–	–	viability at 50 µM [2]: < 80%
COc1cc(C2Oc3cc(-c4oc5cc(O)cc(O)c5c(=O)c4O)ccc3OC2CO)ccc1O (centres unmarked) [Dehydrosilybin AB, 2,3-dehydrosilybin]	0.943	1.262	1.343	1.826	2.341	1.326	1.706	1.669	0.923	1.418	–	–	–	1.463	1.519	1.408	< 80%	0.322	DOWN	–	inhibition of lipid peroxidation compared to silybin [4]: 10 fold
COc1cc([C@@H]2Oc3cc(-c4oc5cc(O)cc(O)c5c(=O)c4O)ccc3O[C@H]2CO)ccc1O [Dehydrosilybin B, 2,3-dehydrosilybin B]	1.060	1.343	1.226	2.931	1.625	1.963	–	–	0.784	1.334	11%	0.891	DOWN	–	–	–	< 80%	–	–	–	–
COc1cc([C@H]2Oc3cc([C@H]4Oc5cc(O)cc(O)c5C(=O)[C@@H]4O)ccc3O[C@@H]2CO)ccc1O [Silybin A, silybin A]	–	1.665	1.242	–	1.141	1.570	–	–	–	–	–	1.078	–	–	–	–	–	–	–	–	–
COc1cc(C2Oc3cc([C@H]4Oc5cc(O)cc(O)c5C(=O)[C@@H]4O)ccc3OC2CO)ccc1O (some centres unmarked) [Silybin AB, silybin]	1.142	1.527	1.463	1.559	–	1.554	1.440	2.091	0.137	1.326	–	2.583	–	1.803	1.819	1.558	–	–	–	1.838	ABCB8 Expression Difference (ABCB8): 1.503; ABCG1 Expression Difference (ABCG1; [6]): 2.416; ABCD4 Expression Difference (ABCD4): 1.882; ABCF1 Treated vs. Untreated (ABCF1; [5]): DOWN; number of ABC genes with increased expression (ABC superfamily genes): 20
COc1cc([C@@H]2Oc3cc([C@H]4Oc5cc(O)cc(O)c5C(=O)[C@@H]4O)ccc3O[C@H]2CO)ccc1O [Silybin B, silybin B]	0.794	–	–	–	–	1.335	0.328	0.392	–	0.307	–	0.520	DOWN	–	0.365	0.391	–	0.260	DOWN	0.396	ABCA3 Treated vs. Untreated (ABCA3; [5]): DOWN; ABCA3 Expression Difference (ABCA3; [6]): 0.228; ABCA3 Treated vs. Untreated (ABCA3; [6]): DOWN; ABCB6 Treated vs. Untreated (ABCB6; [6]): DOWN; ABCC5 Treated vs. Untreated (ABCC5): DOWN; ABCB8 Expression Difference (ABCB8): 0.413; ABCB8 Treated vs. Untreated (ABCB8): DOWN; ABCE1 Treated vs. Untreated (ABCE1): DOWN; ABCG1 Expression Difference (ABCG1; [6]): 0.303; ABCG1 Treated vs. Untreated (ABCG1; [6]): DOWN; ABCF3 Treated vs. Untreated (ABCF3; [6]): DOWN; ABCB9 Treated vs. Untreated (ABCB9): DOWN; ABCD4 Expression Difference (ABCD4): 0.370; ABCD4 Treated vs. Untreated (ABCD4): DOWN; number of ABC genes with altered expression (ABC superfamily genes; out of 42 tested): 24; ABCF2 Treated vs. Untreated (ABCF2 [3]): DOWN
